The kinase profiling compilation of Christmann-Franck et al. (2016)

Legend:
Assay in all cases: KINOMEscan competition binding
Settings in all cases: compound 0.1 µM
ABL2 (human) = ABL2 (human) (UniProt P42684)
ACVR2A (human) = ACVR2A (human) (UniProt P27037)
ACVRL1 (human) = ACVRL1 (human) (UniProt P37023)
ADCK4 (human) = ADCK4 (human) (UniProt Q96D53)
AKT3 (human) = AKT3 (human) (UniProt Q9Y243)
[1] = test system: ALK (human), Q9UM73 [C1156Y]
BMPR1B (human) = BMPR1B (human) (UniProt O00238)
BTK (human) = BTK (human) (UniProt Q06187)
CDK14 (human) = CDK14 (human) (UniProt O94921)
CDK15 (human) = CDK15 (human) (UniProt Q96Q40)
CHEK1 (human) = CHEK1 (human) (UniProt O14757)
CHUK (human) = CHUK (human) (UniProt O15111)
CLK1 (human) = CLK1 (human) (UniProt P49759)
CSNK1A1L (human) = CSNK1A1L (human) (UniProt Q8N752)
Sequence of CSNK1A1L (human) (Q8N752 whole entry, looked up): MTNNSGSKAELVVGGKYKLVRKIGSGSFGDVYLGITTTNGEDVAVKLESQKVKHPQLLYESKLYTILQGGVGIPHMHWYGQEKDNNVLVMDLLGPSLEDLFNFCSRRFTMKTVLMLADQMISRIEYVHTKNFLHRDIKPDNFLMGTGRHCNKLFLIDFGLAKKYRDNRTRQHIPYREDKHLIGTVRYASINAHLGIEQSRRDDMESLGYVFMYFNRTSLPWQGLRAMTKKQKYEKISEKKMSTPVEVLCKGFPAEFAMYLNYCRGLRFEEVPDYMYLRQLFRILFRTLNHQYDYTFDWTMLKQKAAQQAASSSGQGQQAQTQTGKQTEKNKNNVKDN

CSNK1G1 (human) = CSNK1G1 (human) (UniProt Q9HCP0)
DAPK3 (human) = DAPK3 (human) (UniProt O43293)
[2] = test system: EGFR (human), P00533 [G719S]
EPHB4 (human) = EPHB4 (human) (UniProt P54760)
FGFR3 (human) = FGFR3 (human) (UniProt P22607)
FLT1 (human) = FLT1 (human) (UniProt P17948)
GSK3A (human) = GSK3A (human) (UniProt P49840)
MAP3K6 (human) = MAP3K6 (human) (UniProt O95382)
MAP4K5 (human) = MAP4K5 (human) (UniProt Q9Y4K4)
MAPK9 (human) = MAPK9 (human) (UniProt P45984)
Sequence of MAPK9 (human) (P45984 whole entry, looked up): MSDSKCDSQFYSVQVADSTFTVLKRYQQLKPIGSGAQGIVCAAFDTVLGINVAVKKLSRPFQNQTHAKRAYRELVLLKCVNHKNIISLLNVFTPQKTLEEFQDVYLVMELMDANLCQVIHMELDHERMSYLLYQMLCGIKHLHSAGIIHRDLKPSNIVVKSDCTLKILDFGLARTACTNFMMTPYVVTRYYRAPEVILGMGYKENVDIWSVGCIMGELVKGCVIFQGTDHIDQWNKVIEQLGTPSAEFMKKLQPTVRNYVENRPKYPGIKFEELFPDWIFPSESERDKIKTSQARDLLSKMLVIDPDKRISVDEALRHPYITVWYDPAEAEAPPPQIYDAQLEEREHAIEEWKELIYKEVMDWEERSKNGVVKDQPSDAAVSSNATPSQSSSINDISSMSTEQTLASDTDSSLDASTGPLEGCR

MKNK2 (human) = MKNK2 (human) (UniProt Q9HBH9)
NEK1 (human) = NEK1 (human) (UniProt Q96PY6)
NLK (human) = NLK (human) (UniProt Q9UBE8)
PAK1 (human) = PAK1 (human) (UniProt Q13153)
PAK6 (human) = PAK6 (human) (UniProt Q9NQU5)
PIK3CA (human) = PIK3CA (human) (UniProt P42336)
Sequence of PIK3CA (human) (P42336 whole entry, looked up): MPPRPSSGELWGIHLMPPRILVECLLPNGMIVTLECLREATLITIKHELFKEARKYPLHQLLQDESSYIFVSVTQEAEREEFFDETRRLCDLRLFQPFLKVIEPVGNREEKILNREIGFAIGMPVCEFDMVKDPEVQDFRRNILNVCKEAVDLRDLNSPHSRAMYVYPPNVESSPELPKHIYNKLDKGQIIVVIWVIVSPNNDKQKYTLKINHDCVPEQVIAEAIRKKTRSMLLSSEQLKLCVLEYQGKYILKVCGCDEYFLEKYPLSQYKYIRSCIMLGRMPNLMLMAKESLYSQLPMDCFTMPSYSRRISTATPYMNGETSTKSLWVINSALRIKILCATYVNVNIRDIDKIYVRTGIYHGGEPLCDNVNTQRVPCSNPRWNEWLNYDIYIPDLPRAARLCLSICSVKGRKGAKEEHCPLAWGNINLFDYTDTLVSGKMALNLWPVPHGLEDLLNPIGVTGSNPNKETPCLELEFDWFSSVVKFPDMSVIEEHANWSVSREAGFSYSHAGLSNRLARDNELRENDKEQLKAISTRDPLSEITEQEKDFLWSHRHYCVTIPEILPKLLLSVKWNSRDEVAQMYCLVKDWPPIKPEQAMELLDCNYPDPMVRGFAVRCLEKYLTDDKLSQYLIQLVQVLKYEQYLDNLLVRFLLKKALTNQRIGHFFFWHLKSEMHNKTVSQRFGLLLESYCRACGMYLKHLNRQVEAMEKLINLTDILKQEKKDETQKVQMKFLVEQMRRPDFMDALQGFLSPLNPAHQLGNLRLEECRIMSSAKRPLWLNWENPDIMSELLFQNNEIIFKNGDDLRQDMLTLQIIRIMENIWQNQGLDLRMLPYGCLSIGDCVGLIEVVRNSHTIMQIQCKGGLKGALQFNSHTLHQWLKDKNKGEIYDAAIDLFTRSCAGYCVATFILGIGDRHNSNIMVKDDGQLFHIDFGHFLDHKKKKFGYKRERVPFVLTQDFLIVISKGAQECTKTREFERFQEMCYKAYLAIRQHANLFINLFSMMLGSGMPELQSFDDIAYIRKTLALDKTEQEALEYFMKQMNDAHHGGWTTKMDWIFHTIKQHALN

[3] = test system: PIK3CA (human), P42336 [H1047Y]
Sequence of PIK3CA (human), P42336 [H1047Y] (P42336 whole entry H1047Y, looked up): as the sequence (P42336 whole entry, looked up) above, with H1047Y counted along it

PLK2 (human) = PLK2 (human) (UniProt Q9NYY3)
PRKCQ (human) = PRKCQ (human) (UniProt Q04759)
Sequence of PRKCQ (human) (Q04759 whole entry, looked up): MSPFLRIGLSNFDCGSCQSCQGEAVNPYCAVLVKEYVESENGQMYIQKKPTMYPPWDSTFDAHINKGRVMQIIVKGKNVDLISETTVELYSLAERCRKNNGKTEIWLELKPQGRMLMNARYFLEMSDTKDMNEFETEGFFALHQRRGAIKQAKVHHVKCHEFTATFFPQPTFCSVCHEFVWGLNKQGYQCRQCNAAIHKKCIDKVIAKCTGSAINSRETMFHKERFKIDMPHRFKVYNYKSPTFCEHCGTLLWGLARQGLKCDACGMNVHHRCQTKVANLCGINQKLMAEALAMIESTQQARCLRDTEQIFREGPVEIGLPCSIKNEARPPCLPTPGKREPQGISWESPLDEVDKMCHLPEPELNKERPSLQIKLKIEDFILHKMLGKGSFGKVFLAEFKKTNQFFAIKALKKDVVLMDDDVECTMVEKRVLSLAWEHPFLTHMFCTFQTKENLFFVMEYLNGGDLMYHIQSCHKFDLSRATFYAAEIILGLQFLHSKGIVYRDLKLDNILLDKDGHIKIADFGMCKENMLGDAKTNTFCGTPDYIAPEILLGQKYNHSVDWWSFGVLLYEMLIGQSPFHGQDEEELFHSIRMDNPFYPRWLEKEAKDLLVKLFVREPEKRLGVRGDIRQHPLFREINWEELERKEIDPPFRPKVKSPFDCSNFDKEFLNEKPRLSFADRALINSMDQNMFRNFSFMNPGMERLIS

PRKG2 (human) = PRKG2 (human) (UniProt Q13237)
RIPK1 (human) = RIPK1 (human) (UniProt Q13546)
SIK2 (human) = SIK2 (human) (UniProt Q9H0K1)
Sequence of SIK2 (human) (Q9H0K1 whole entry, looked up): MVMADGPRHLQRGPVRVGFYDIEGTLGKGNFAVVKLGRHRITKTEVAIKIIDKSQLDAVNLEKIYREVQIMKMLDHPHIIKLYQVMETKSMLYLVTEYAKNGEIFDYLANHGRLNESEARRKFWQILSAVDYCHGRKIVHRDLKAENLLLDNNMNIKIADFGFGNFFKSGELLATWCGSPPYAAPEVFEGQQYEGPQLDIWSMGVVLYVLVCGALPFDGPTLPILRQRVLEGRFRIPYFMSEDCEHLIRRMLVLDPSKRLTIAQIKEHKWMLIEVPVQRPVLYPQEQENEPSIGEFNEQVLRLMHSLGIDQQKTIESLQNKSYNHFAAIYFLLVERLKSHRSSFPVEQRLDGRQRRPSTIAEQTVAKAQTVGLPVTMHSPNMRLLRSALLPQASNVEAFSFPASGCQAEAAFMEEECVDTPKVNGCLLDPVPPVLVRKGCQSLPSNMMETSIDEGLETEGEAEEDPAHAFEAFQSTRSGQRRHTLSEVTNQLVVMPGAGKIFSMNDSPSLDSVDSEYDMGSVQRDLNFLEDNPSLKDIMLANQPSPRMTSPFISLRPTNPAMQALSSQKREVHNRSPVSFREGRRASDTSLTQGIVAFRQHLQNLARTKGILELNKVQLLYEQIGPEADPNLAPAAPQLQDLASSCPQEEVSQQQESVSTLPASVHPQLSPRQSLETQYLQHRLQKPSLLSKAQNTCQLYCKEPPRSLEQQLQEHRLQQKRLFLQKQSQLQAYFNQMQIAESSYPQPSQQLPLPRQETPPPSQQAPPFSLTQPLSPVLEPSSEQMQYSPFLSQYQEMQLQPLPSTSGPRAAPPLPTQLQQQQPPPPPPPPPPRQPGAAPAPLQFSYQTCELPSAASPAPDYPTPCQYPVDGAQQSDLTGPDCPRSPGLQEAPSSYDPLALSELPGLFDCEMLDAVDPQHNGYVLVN

SRPK3 (human) = SRPK3 (human) (UniProt Q9UPE1)
STK32C (human) = STK32C (human) (UniProt Q86UX6)
STK38 (human) = STK38 (human) (UniProt Q15208)
Sequence of STK38 (human) (Q15208 whole entry, looked up): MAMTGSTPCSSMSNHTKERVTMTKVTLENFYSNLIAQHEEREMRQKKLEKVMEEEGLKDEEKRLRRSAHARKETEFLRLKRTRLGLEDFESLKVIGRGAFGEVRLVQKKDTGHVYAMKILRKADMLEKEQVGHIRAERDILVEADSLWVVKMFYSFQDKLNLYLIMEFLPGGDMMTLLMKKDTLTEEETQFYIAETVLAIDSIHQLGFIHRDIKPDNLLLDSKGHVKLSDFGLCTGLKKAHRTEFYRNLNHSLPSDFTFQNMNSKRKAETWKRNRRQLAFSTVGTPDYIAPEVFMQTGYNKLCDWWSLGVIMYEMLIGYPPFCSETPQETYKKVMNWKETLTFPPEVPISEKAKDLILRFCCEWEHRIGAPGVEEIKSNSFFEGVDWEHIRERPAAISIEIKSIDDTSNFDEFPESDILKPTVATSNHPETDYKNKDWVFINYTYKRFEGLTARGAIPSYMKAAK

TAOK3 (human) = TAOK3 (human) (UniProt Q9H2K8)
TBK1 (human) = TBK1 (human) (UniProt Q9UHD2)

Sequence of ADCK4 (human) (Q96D53 whole entry, looked up): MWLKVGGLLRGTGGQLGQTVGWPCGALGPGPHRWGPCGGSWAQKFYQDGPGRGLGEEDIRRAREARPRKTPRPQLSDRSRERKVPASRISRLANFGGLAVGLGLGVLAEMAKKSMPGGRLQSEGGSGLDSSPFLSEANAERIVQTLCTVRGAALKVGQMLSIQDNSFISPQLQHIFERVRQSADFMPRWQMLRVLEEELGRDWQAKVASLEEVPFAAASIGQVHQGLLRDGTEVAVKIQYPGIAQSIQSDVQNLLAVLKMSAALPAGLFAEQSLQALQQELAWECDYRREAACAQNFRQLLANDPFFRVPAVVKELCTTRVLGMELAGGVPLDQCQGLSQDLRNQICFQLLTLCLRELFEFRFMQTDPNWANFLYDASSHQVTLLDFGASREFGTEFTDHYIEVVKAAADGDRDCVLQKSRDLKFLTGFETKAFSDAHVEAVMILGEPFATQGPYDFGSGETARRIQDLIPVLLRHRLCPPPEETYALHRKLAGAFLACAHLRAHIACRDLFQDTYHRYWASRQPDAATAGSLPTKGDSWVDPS
Sequence of AKT3 (human) (Q9Y243 whole entry, looked up): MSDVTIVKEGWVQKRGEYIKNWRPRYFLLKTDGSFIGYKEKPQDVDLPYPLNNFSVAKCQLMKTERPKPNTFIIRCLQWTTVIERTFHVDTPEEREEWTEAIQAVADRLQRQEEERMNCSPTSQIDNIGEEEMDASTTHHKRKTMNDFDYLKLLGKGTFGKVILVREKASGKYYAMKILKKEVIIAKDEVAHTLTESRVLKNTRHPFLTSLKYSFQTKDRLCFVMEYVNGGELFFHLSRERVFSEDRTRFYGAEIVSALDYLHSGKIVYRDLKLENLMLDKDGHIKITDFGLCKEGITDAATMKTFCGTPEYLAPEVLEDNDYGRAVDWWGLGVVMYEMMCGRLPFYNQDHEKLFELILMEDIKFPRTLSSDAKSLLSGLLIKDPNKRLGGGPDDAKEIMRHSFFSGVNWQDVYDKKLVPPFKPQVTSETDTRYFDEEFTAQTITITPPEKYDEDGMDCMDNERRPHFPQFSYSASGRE

CCc1ccc(C(=O)Nc2cc(CN3CCN(C)CC3)cc(C(F)(F)F)c2)cc1C#Cc1cnc2ccnn2c1
kinase still bound, per cent of control (ABL2 (human)): 39%
kinase still bound, per cent of control (ACVR2A (human)): 97%
kinase still bound, per cent of control (ACVRL1 (human)): 100%
kinase still bound, per cent of control (ADCK4 (human)): 100%
kinase still bound, per cent of control (AKT3 (human)): 100%
kinase still bound, per cent of control [1]: 97%
kinase still bound, per cent of control (BMPR1B (human)): 100%
kinase still bound, per cent of control (BTK (human)): 100%
kinase still bound, per cent of control (CDK14 (human)): 81%
kinase still bound, per cent of control (CDK15 (human)): 100%
kinase still bound, per cent of control (CHEK1 (human)): 100%
kinase still bound, per cent of control (CHUK (human)): 100%
kinase still bound, per cent of control (CLK1 (human)): 71%
kinase still bound, per cent of control (CSNK1A1L (human)): 83%
kinase still bound, per cent of control (CSNK1G1 (human)): 85%
kinase still bound, per cent of control (DAPK3 (human)): 80%
kinase still bound, per cent of control [2]: 100%
kinase still bound, per cent of control (EPHB4 (human)): 100%
kinase still bound, per cent of control (FGFR3 (human)): 100%
kinase still bound, per cent of control (FLT1 (human)): 84%
kinase still bound, per cent of control (GSK3A (human)): 100%
kinase still bound, per cent of control (MAP3K6 (human)): 100%
kinase still bound, per cent of control (MAP4K5 (human)): 100%
kinase still bound, per cent of control (MAPK9 (human)): 100%
kinase still bound, per cent of control (MKNK2 (human)): 100%
kinase still bound, per cent of control (NEK1 (human)): 93%
kinase still bound, per cent of control (NLK (human)): 45%
kinase still bound, per cent of control (PAK1 (human)): 75%
kinase still bound, per cent of control (PAK6 (human)): 81%
kinase still bound, per cent of control (PIK3CA (human)): 100%
kinase still bound, per cent of control [3]: 76%
kinase still bound, per cent of control (PLK2 (human)): 100%
kinase still bound, per cent of control (PRKCQ (human)): 80%
kinase still bound, per cent of control (PRKG2 (human)): 100%
kinase still bound, per cent of control (RIPK1 (human)): 100%
kinase still bound, per cent of control (SIK2 (human)): 100%
kinase still bound, per cent of control (SRPK3 (human)): 92%
kinase still bound, per cent of control (STK32C (human)): 96%
kinase still bound, per cent of control (STK38 (human)): 93%
kinase still bound, per cent of control (TAOK3 (human)): 100%
kinase still bound, per cent of control (TBK1 (human)): 100%
